Data reported in patent publication US20260207450A1, “ANTI-DANDRUFF COMPOSITIONS” (Firmenich SA, priority 2022, published 2026).
Read-outs that look alike come from different tables or passages of the source.

Key:
M. restricta = assay: Disc-diffusion assay, additional perfumery materials in DMSO, M. restricta, 4 days; assay type: cell-based, Malassezia restricta; conditions: for zone of inhibition: in DMSO (1% or 2%, not specified per value)
Experimental: (§1) Anti-Malassezia effect of additional perfumery materials in DMSO was determined using disc-diffusion assay as described previously. Test samples solutions were prepared in DMSO to final concentrations of 0.5%, 1% or 2%. Discs (Whatman, 6 mm in diameter) were placed on inoculated agar plates. Aliquots (20 μL) of each sample solution was added to each disc. Agar plates were incubated at 30° C. for 4 days. After incubation, diameters of the clear inhibition zones around the discs were recorded
as §1, with “above.” for “previously.”, “recorded.” for “recorded”
Anti-Malassezia effect of additional perfumery materials in solvent in DMSO was determined using disc-diffusion assay, as described previously. Test samples solutions are prepared in DMSO to final concentrations of 0.5%. Discs (Whatman, 6 mm in diameter) were placed on inoculated agar plates. Aliquots (20 μL) of each sample solution was added to each disc. Agar plates were incubated at 30° C. for 4 days. After incubation, diameters of the clear inhibition zones around the discs were measured.

[1] = test system: M. restricta ATCC MYA-4611; assay: Disc-diffusion assay, perfumery materials in DMSO, M. restricta; assay type: cell-based, Malassezia restricta; conditions: Malassezia restricta, 144 h
Experimental: Anti-Malassezia effect of perfumery materials in solvent in DMSO was determined using disc-diffusion assay, based on the method of J Mycol Infect 2018: 23: 91-98. In brief, working cultures of Malassezia strains were prepared from −80 C stock culture on mDixon agar plate (for M. furfur DSM 6170) or mLN agar plate (for M. restricta ATCC MYA-4611 and M. globosa ATCC MYA-4612), and cells were suspended in 0.9% saline, and spread onto mDixon or mLN agar surface to prepare lawn plate. Test samples solutions are prepared in DMSO to final concentrations of 0.2%, 1% or 2%. Discs (Whatman, 6 mm in diameter) were placed on inoculated agar plates with each Malassezia strains respectively, including M. furfur DSM 6170, M. restricta ATCC MYA-4611, and M. globosa ATCC MYA-4612. Aliquots (20 μL) of each sample solution was added to each disc. Agar plates were incubated at 30° C. for 3 days for M. furfur DSM 6170, and 6 days for M. restricta ATCC MYA-4611, and M. globosa ATCC MYA-4612. After incubation, diameters of the clear inhibition zones around the discs were measured. Inhibition zone greater than 6 mm are regarded as having anti-Malassezia effect.

[2] = Malassezia restricta, 96 h, Table 19, M. restricta, 4 days, read-out: Inhibition zone diameter (mm)
[3] = Malassezia restricta, 96 h, Table 20, 0.5% in DMSO, 4 days, read-out: Inhibition zone diameter (mm) on M. restricta

Molecule	zone of inhibition at 0.5 % (M. restricta; [3]) [mm]	further results
(+)-(3S)-3-[(1R)-4-methyl-3-cyclohexen-1-yl]butanal + (+)-(3R)-3-[(1R)-4-methyl-3-cyclohexen-1-yl]butanal		Inhibition zone diameter (mm) on M. restricta (M. restricta; Table 20, 0.5% in DMSO, 4 days): 7.3 mm
(1RS,2RS)-2,4-dimethyl-3-cyclohexene-1-carbaldehyde + (1RS,2SR)-2,4-dimethyl-3-cyclohexene-1-carbaldehyde		Inhibition zone diameter (mm) on M. restricta (M. restricta; Table 20, 0.5% in DMSO, 4 days): 8.0 mm
CCCCCC/C=C/CO [(E)-2-nonen-1-ol]		zone of inhibition (M. restricta; [2]): 7.5 mm
CCCCCCC/C=C\C=O [(Z)-2-decenal]		zone of inhibition (M. restricta; [2]): > 40 mm
CCCCC/C=C/C=C/C=O [(E,E)-2,4-decadienal]		zone of inhibition (M. restricta; [2]): > 40 mm
CCCCCCC=C/C=C/C=O [(2E)-2,4-undecadienal]		zone of inhibition (M. restricta; [2]): 26.6 mm
CCCCC/C=C/CCC=O [(4E)-4-decenal]	7.2	
CC(C=O)c1ccccc1 (stereo not drawn) [2-phenylpropanal]	7	
COC(OC)C(C)(C)CC=C(C)C [6,6-dimethoxy-2,5,5-trimethyl-2-hexene]	7.2	
CC(C)=CCCC(C)CC=O (racemic) [(+/−)-3,7-dimethyl-6-octenal]	7.3	
CC/C=C/CC/C=C/C=O [(E,E)-2,6-nonadienal]		zone of inhibition (M. restricta; [2]): > 40 mm
C/C(=C\c1ccc(C)cc1)CC(C)C=O (racemic) [(+/−)-(4E)-2,4-dimethyl-5-(4-methylphenyl)-4-pentenal]		zone of inhibition at 0.5 % (M. restricta; Malassezia restricta, 96 h, read-out: Inhibition zone diameter (mm)): 7.8 mm
CC/C=C/C=C/C=O [(2E,4E)-2,4-heptadienal]		zone of inhibition (M. restricta; [2]): > 40 mm
O=C1CCCCCCCCCCCC(=O)OCCO1 [1,4-dioxacycloheptadecane-5, 17-dione]	7.3	
CCCCCCCC/C=C/C=O [(E)-2-undecenal]		zone of inhibition (M. restricta; [2]): > 40 mm
c1ccc(Oc2ccccc2)cc1 [1,1′-oxydibenzene]		zone of inhibition at 0.5 % (M. restricta; Malassezia restricta, 96 h, read-out: Inhibition zone diameter (mm) on M. restricta): 7.4 mm
C=CC(C)CCCC(C)(C)O (racemic) [(+/−)-2,6-dimethyl-7-octen-2-ol]	7.5	
CCCCC/C=C/C=O [(E)-2-octenal]	24.8	
Cc1ccc2c(c1)OCC(=O)CO2 [7-methyl-2H-1,5-benzodioxepin-3(4H)-one]	7	
CCCCCCCCCC(C)C=O (racemic) [(+/−)-2-methylundecanal]	7.1	
(+/−)-(4Z)-4,8-dimethyl-4,9-decadienal + (+/−)-(4E)-4,8-dimethyl-4,9-decadienal		Inhibition zone diameter (mm) (M. restricta; Table 19, in DMSO (0.5%, 1% or 2%, not specified per value), M. restricta, 4 days): 7.3 mm

Molecule	zone of inhibition at 0.5 % (M. restricta; [3]) [mm]	further results
cis-4-(2-methyl-2-propanyl)cyclohexyl acetate + trans-4-(2-methyl-2-propanyl)cyclohexyl acetate		Inhibition zone diameter (mm) on M. restricta (M. restricta; Table 20, 0.5% in DMSO, 4 days): 7.2 mm
CC1=CCC(C/C=C(\C)CO)C1(C)C (racemic) [(+/−)-(2E)-2-methyl-4-(2,2,3-trimethyl-3-cyclopenten-1-yl)-2-buten-1-ol]	7.6	
CC(C)CCCC(C)(C)O [2,6-dimethyl-2-heptanol]	7.7	
CCCCC/C=C\CCC=O [(Z)-4-decenal]		zone of inhibition (M. restricta; [2]): 7.2 mm
Cc1ccc2c(c1)CC(C)(CO)C2 (racemic) [(+/−)-(2,5-dimethyl-2,3-dihydro-1H-inden-2-yl)methanol]	7	
CC(C)(O)Cc1ccc(CCC=O)cc1 [3-[4-(2-hydroxy-2-methylpropyl)phenyl]propanal]		zone of inhibition at 1 % (M. restricta; Malassezia restricta, 96 h, Table 18, 1% in DMSO, M. restricta, 4 days, read-out: Inhibition zone diameter (mm)): 8.9 mm; zone of inhibition at 2 % (M. restricta; Malassezia restricta, 96 h, Table 18, 2% in DMSO, M. restricta, 4 days, read-out: Inhibition zone diameter (mm)): 16 mm
Cc1ccc(CC=O)cc1 [(4-methylphenyl)acetaldehyde]	10.6	
C=C1CCCC(C)(C)C1C(=O)OC (racemic) [(+/−)-methyl 2,2-dimethyl-6-methylidenecyclohexanecarboxylate]	7.5	
CC/C=C\CCOC(=O)C(C)C [(Z)-3-hexenyl isobutyrate]	7.7	
CCCCCC/C=C/C=O [(E)-2-nonenal]	38	
CCCCCCCCC=O [nonanal]	7.3	
CC(=CC=O)CCC(C)=C(C)C [3,6,7-trimethyl-2,6-octadienal]	8.7	
CC(CC=O)CCc1ccccc1 (racemic) [(+/−)-3-methyl-5-phenylpentanal]	7.6	
CCCCCCCC=C/C=C/C=O [(2E)-2,4-dodecadienal]		zone of inhibition (M. restricta; [2]): 21.5 mm
CCCCC/C=C\C=C\C(=O)OCC [ethyl (2E,4Z)-2,4-decadienoate]	7.4	
C/C(C=O)=C\c1ccccc1 [(2E)-2-methyl-3-phenyl-2-propenal]	8.1	
CCCCCCO [Mix 1-hexanol, 1-hexanol]		zone of inhibition at 1 % [1]: 6.7 mm
CCCC/C=C\CCO [(Z)-3-octen-1-ol]		zone of inhibition (M. restricta; [2]): 7.1 mm
COC(C)(C)C1CC=C(C)CC1 (stereo not drawn) [4-(2-methoxy-2-propanyl)-1-methylcyclohexene]	7	
(2R)-2-methyl-4-[(1R)-2,2,3-trimethyl-3-cyclopenten-1-yl]-4-pentenal + (2S)-2-methyl-4-[(1R)-2,2,3-trimethyl-3-cyclopenten-1-yl]-4-pentenal		Inhibition zone diameter (mm) on M. restricta (M. restricta; Table 20, 0.5% in DMSO, 4 days): 7.0 mm
CC(C)=CCC[C@@H](C)CC#N [(−)-(R)-3,7-dimethyl-6-octenenitrile]	7.2	

Molecule	zone of inhibition at 0.5 % (M. restricta; [3]) [mm]	further results
Cc1cc2c(cc1C=O)C(C)(C)[C@H](C)[C@@H](C)C2(C)C (racemic) [(6RS,7RS)-3,5,5,6,7,8,8-heptamethyl-5,6,7,8-tetrahydro-2-naphthalenecarbaldehyde]	7.8	
CCC(=CCC1CC=C(C)C1(C)C)CO (racemic) [(+/−)-2-ethyl-4-(2,2,3-trimethyl-3-cyclopenten-1-yl)-2-buten-1-ol]	7	
COc1cc(C=O)ccc1OC(=O)C(C)C [4-formyl-2-methoxyphenyl 2-methylpropanoate]	10.2	
CC1(C)CC=C(CCC=O)CC1 [3-(4,4-dimethyl-1-cyclohexen-1-yl)propanal]	8.9	
CCCCCC/C(C=O)=C\c1ccccc1 [(2E)-2-benzylideneoctanal]	7.2	
CC1(C)C2CC=C(CCC=O)C1C2 (stereo not drawn) [3-(6,6-dimethyl-bicyclo[3.1.1]hept-2-en-2-yl)propanal]	7.3	
CC1(C)CCC[C@]2(C)[C@H]3CCO[C@]3(C)CC[C@@H]12 [(−)-(3aR,5aS,9aS,9bR)-3a,6,6,9a-tetramethyldodecahydronaphtho[2,1-b]furan]	7.7	
CCCCCCCC=O [octanal]	7.5	
CC(C)=CCC[C@@H](C)CC=O [(+)-(R)-3,7-dimethyl-6-octenal]	7.1	
CC/C=C\CCCCC=O [(Z)-6-nonenal]	7.2	
CCCCCCCCC(C)C=O (racemic) [(+/−)-2-methyldecanal]	7.1	
CC(C=O)Cc1ccc2c(c1)OCO2 (racemic) [(+/−)-3-(1,3-benzodioxol-5-yl)-2-methylpropanal]	19	
CCCCCCC/C=C\CCC=O [(4Z)-4-dodecenal]		zone of inhibition (M. restricta; [2]): 7.4 mm
CC/C(=C\C[C@H]1CC=C(C)C1(C)C)CO [(−)-(2E)-2-ethyl-4-[(1R)-2,2,3-trimethyl-3-cyclopenten-1-yl]-2-buten-1-ol]	7.6	
CC(C)=CCCC(C)CCOCC=O (racemic) [(+/−)-[(3,7-dimethyl-6-octen-1-yl)oxy]acetaldehyde]	9.7	
CCCCCCCCCC/C=C/C=O [(E)-2-tridecenal]	15.2	
CNc1ccccc1C(=O)OC [methyl 2-(methylamino)benzoate]	7.4	
CC1=C(C=O)C(C)(C)CC=C1 [2,6,6-trimethyl-1,3-cyclohexadiene-1-carbaldehyde]	7.2	
CC/C=C\CCCCO [(Z)-5-octen-1-ol]		zone of inhibition (M. restricta; [2]): 7.3 mm
CC(=O)OCCC1=CCC2CC1C2(C)C (stereo not drawn) [2-(6,6-dimethyl-bicyclo[3.1.1]hept-2-en-2-yl)ethyl acetate]	7.5	
